We go through 1 compound from patent publication US11135224B2, “Methods of sensitizing estrogen receptor positive (ER+) breast cancer cells to endocrine therapy” (New York University, priority 2018, dated 2021).

For experiment [1], the system named is p38, JNK1, and RSKs. The following applies: at 10 μM; cited from earlier work.
Experiment [2] has as its system Runx2 mRNA. Nature of the experiment: Runx2 mRNA levels (RT-qPCR) after CGP57380. Conditions: treated vs untreated cells. It counts as cell-based, human. On the procedure: Quantitative Real-Time PCR (RT-qPCR) and Analysis: RNA was extracted using Trizol as per the manufacturer's instructions. One microgram of RNA was used for reverse transcription reaction using Promega GoScript, as per the manufacturer's instructions. qRT-PCR was completed using iTaq Universal 2× SYBR Green qPCR master mix (Bio-Rad) and an Applied Biosystems 7500 Fast RT-PCR machine as per the manufacturers' instructions. Fold change was calculated using the 2^−ΔΔCt method.
The biological functions of mRNAs identified as highly eIF4E-dependent in tamoxifen-resistant cells were next assessed. Of these, Runx2 was particularly notable because it encodes a protein with a number of activities that could play a role in tamoxifen resistance, as it is an important inhibitor of estrogen signaling and stimulates oncogenic pathways. […] It was also determined whether Runx2 mRNA requires eIF4E S209 phosphorylation by Mnk1. Cells were untreated or treated with CGP57380, and Runx2 mRNA and protein levels were determined.
(Quantitative PCR measures a nucleic acid by following its amplification.)

Experiment [3] has as its system global protein synthesis in TamS and TamR cells. The experiment can be described thus: [35S]-methionine metabolic labeling, overall protein synthesis. Conditions: 10 μM for 24 hours, [35S]-methionine labeling 30 minutes. It counts as cell-based, human. On the procedure: Hsp70 (loading control). […] Cells were treated with DMSO, 1 μM 4-OH Tam, 4-OH Tam and CGP 57380 (10 μM), or 1 μM 4-OH Tam, CGP57380, and 20 nM RAD001 therapies 24 hours after plating. Treatment was changed every 72 hours. Colonies were scored after 10 days counting only >50 cells/colony. Results are representative of three independent experiments. SEM is shown. […] Results from three independent experiments. Error bars represent SEM (n.s.=not significant). […] Equal amounts of RNA were resolved by sucrose gradient centrifugation and ribosome profiles monitored by UV absorbance 254 nm. Results are representative images of two independent experiments.
^35S-Methionine Metabolic Protein Labeling: Global protein synthesis was measured as previously described (Ramirez-Valle et al., “eIF4GI Links Nutrient Sensing by mTOR to Cell Proliferation and Inhibition of Autophagy,” J. Cell Biol. 181(2):293-307 (2008), which is incorporated herein by reference in its entirety). Cells (2×10^5) were seeded, in triplicate, into 6-well culture plates and allowed to adhere for 48-72 hours. Cells were labeled with 25 μCi ^355-methionine/cysteine protein labeling mix (PerkinElmer) for 30 minutes at 37° C. using DMEM without L-Methionine or L-Cysteine supplemented with 5% FBS. […] Protein concentration was measured by the BCA assay (Thermo Scientific). […]

For the compound `Nc1ncnc2n[nH]c(Nc3ccc(F)cc3)c12` [CGP57380], the “inhibitory activity on other families of related kinases (p38, JNK1, and RSKs)” value in experiment [1] is listed as “no inhibitory activity”. For the same compound, in experiment [2], the “Runx2 mRNA levels” value is given as “no statistically significant difference”. Further, in experiment [3], the “reduction in global protein synthesis” value is 10%.
